Measured values taken from patent US20040138207A1, “Antitumor agents” (priority 2001, published 2004).
Several values for one entry are separate records, joined by “and”; a condition that tells them apart may be missing. Equal values may be shown once. Read-outs that look alike come from different tables or passages of the source.

Key:
[1] = tested on: human pancreatic cancer cell line BxPC-3; experiment: Example 1 antitumor action in BxPC-3 bearing Balb/c nude mice; assay type: in vivo; conditions: BxPC-3, 200 mg/kg per day p.o. from day after injection, 23 days
Protocol: (§1) Three to 10×10^6 cells of human pancreatic cancer cell lines (BxPC-3 and PANC-1), human large bowel cancer cell lines (HT29 and COLO320DM) and a human gastric cancer cell line (MKN28) were injected into the dorsal side skin of female Balb/c nude mice. Starting on the next day of the subcutaneous injection of cancer cells, 200 mg/kg per day of the compound A was suspended in 0.5% methylcellulose and orally administered every day by dividing the daily dose into two doses per day. Also, 0.5% methylcellulose solution was administered in the same schedule to the control group. Using calipers, the tumor diameter was measured periodically until the next day of the final administration. The tumor volume and tumor growth inhibition ratio were calculated by the following calculation formulae.
(§2) Tumor volume (mm^3)=½×breadth (mm)^2×length (mm)
(§3) Tumor growth inhibition ratio (%)=[(tumor volume of control group—tumor volume of compound A administration group)/tumor volume of control group]×100

[2] = tested on: human pancreatic cancer cell line PANC-1; experiment: Example 1 antitumor action in PANC-1 bearing Balb/c nude mice; assay type: in vivo; conditions: PANC-1, 200 mg/kg per day p.o., 49 days
Protocol: as §1, §2, §3

[3] = tested on: human large bowel cancer cell line HT29; experiment: Example 1 antitumor action in HT29 bearing Balb/c nude mice; assay type: in vivo; conditions: HT29, 200 mg/kg per day p.o., 27 days
Protocol: as §1, §2, §3

[4] = tested on: human large bowel cancer cell line COLO320DM; experiment: Example 1 antitumor action in COLO320DM bearing Balb/c nude mice; assay type: in vivo; conditions: 200 mg/kg per day p.o., 21 days
Protocol: as §1, §2, §3

[5] = tested on: human gastric cancer cell line MKN28; experiment: Example 1 antitumor action in MKN28 bearing Balb/c nude mice; assay type: in vivo; conditions: MKN28, 200 mg/kg per day p.o., 20 days
Protocol: as §1, §2, §3

[6] = tested on: human pancreatic cancer cell BxPC-3; experiment: Example 2 antitumor action in BxPC-3 cancer-bearing mice (established tumor); assay type: in vivo; conditions: 21 days, start at about 120 mm^3
Protocol: (§4) In human pancreatic cancer cell BxPC-3 bearing mice, administration of the compound A was started when the tumor volume reached to about 120 mm^3 in a similar manner to that described in the test example 1. Its dose per day was 200 or 600 mg/kg, and the administration period was 21 days.
The tumor growth inhibition ratio was calculated by the following calculation formula.
Tumor growth inhibition ratio (%)={[(tumor volume of control group on the administration-finished day−tumor volume of control group before commencement of the administration)−(tumor volume of compound A-treated group on the administration-finished day−tumor volume of compound A-treated group before commencement of the administration)]/(tumor volume of control group on the administration-finished day−tumor volume of control group before commencement of the administration)}×100

[7] = Example 2 toxicity (body weight, side effects) in BxPC-3 cancer-bearing mice; assay type: in vivo
Protocol: as §4

[8] = tested on: human large bowel cancer cell COLO320DM; experiment: Example 3 comparison with other gastrin/CCK-B antagonist in COLO320DM bearing mice; assay type: in vivo; conditions: 10 days
Protocol: In human large bowel cancer cell COLO320DM bearing mice, the administration of compound A was started when the tumor volume reached to about 120 mm^3 in a similar manner to that described in the Example 2. Its dose per day was 60 or 200 mg/kg, and the administration period was 10 days. As a comparative compound, (3RS)-N-(1-(1-tert-butylcarbonylmethyl)-2,3-dihydro-2-oxo-5-(2-pyridyl)-1H-1,4-benzodiazepin-3-yl)-N′-(3-(dimethylamino)phenyl)urea whose data on inhibitory effect of pentagastrin-stimulus gastric acid secretion in a dog are disclosed as “compound of Example 38” in the aforementioned WO 93/16999 was administered in the same manner at a dose of 200 mg/kg.
The tumor growth inhibition ratio was calculated in a similar manner to that described in Example 2. The tumor growth inhibition ratio when 60 or 200 mg/kg of the compound A was administered was 20 or 27%, respectively.

[9] = tested on: human pancreatic cancer cell line BxPC-3; experiment: Example 4 comparison with gemcitabine, tumor growth in BxPC-3 bearing nude mice; assay type: in vivo
Protocol: (§5) A total of 3×10^6 cells of a human pancreatic cancer cell line BxPC-3 was injected into the dorsal side skin of female Balb/c nude mice (6 weeks of age). When the tumor volume reached to about 110 mm^3, 60, 200 or 600 mg/kg per day of the compound A was orally administered in a similar manner to that described in Example 2, every day by dividing the daily dose into two doses per day (n=5). Also, 0.5% methylcellulose solution was administered in the same schedule to the control group. The administration period was 14 days.
(§6) As a comparative compound, a known pancreatic cancer therapeutic agent Gemcitabine (GEM) was used in the same test. GEM was intravenously administered at a dose of 60, 120 or 240 mg/kg per day, once in three days. Physiological saline was administered to the control group in the same schedule.
The tumor growth inhibition ratio was calculated by same calculation formula in Example 2.

[10] = tested on: gastrin-stimulated gastric acid secretion; conditions: dog, 0.01 mg/kg oral administration; cited from earlier work
large bowel cancer = conditions: large bowel cancer-bearing mice; cited from earlier work
human large bowel cancer = conditions: without exogenous gastrin stimulation, cited from earlier work
[11] = Example 4 side effect parameters in BxPC-3 bearing nude mice; assay type: in vivo
Protocol: as §5, §6
The tumor growth inhibition ratio in the compound A-treated group is shown in Table 3, and that in the GEM-treated group in Table 4, together with various parameters which indicate the degree of side effects.

[12] = tested on: cancer cell proliferation; conditions: group of no gastrin stimulation; cited from earlier work
[13] = daily dose of 600 mg/kg continuously for 21 days

CNc1cccc(NC(=O)N[C@@H]2N=C(c3ccccn3)c3ccccc3N(CC(=O)C(C)(C)C)C2=O)c1 [compound A, (3R)-N-(1-(1-tert-butylcarbonylmethyl)-2,3-dihydro-2-oxo-5-(2-pyridyl)-1H-1,4-benzodiazepin-3-yl)-N′-(3-(methylamino)phenyl)urea]
Tumor growth inhibition ratio [1]: 65% | Tumor growth inhibition ratio [2]: 52% | Tumor growth inhibition ratio [3]: 36% | Tumor growth inhibition ratio [4]: 47% | Tumor growth inhibition ratio [5]: 31% | Tumor growth inhibition ratio ([6]; 200 mg/kg per day): 48% | Tumor growth inhibition ratio ([6]; 600 mg/kg per day): 79% | Body weight ([7]; 200 mg/kg dose group, on the 21st day): 23.8 ± 0.5 g | Body weight ([7]; 200 mg/kg dose group, the day before commencement of administration): 22.1 ± 0.5 g | Body weight ([7]; 600 mg/kg dose group, on the 21st day): 23.3 ± 0.7 g | Body weight ([7]; 600 mg/kg dose group, the day before commencement of administration): 21.4 ± 0.6 g | influence on the mouse body weight [7, 13]: did not exert influence | side effects [7, 13]: not observed | Tumor growth inhibition ratio ([8]; 60 mg/kg per day): 20% | Tumor growth inhibition ratio ([8]; 200 mg/kg per day): 27% | Tumor growth inhibition ratio ([9]; 60 mg/kg p.o. per day, 14 days): 19.3 ± 23.6% | Tumor growth inhibition ratio ([9]; 200 mg/kg p.o. per day, 14 days): 25.1% | Tumor growth inhibition ratio ([9]; 200 mg/kg p.o. per day, 14 days, listed as Compound A): 25.1 ± 21.1% | Tumor growth inhibition ratio ([9]; 600 mg/kg p.o. per day, 14 days): 78.2 ± 28.3% | inhibition of gastrin-stimulated gastric acid secretion [10]: 50%

CCCN(CCC)C(=O)C(CCC(=O)O)NC(=O)c1ccccc1 (stereo not drawn) [proglumide]
antitumor effect (large bowel cancer): appropriate antitumor effect | mortality rate of mice (large bowel cancer): reduced

C[C@](Cc1c[nH]c2ccccc12)(NC(=O)OC1[C@H]2C[C@@H]3C[C@@H](C[C@H]1C3)C2)C(=O)NC[C@H](NC(=O)CCC(=O)O)c1ccccc1 (stereo partly drawn) [CI-988]
growth inhibitory action (human large bowel cancer; 25 mg/kg oral): showed a growth inhibitory action | growth inhibitory action (human large bowel cancer; 50 mg/kg oral): not found

Nc1ccn([C@@H]2O[C@H](CO)[C@@H](O)C2(F)F)c(=O)n1 [GEM, Gemcitabine, reference compound]
Tumor growth inhibition ratio ([9]; 60 mg/kg i.v. once in three days): 22.2% and 22.2 ± 26.7% | Tumor growth inhibition ratio ([9]; 120 mg/kg i.v. once in three days): 80.2% and 80.2 ± 20.1% | dead cases ([11]; 240 mg/kg i.v. once in three days, n=5): 3/5 dead cases | MTD at 14 days ([11]; female, Balb/c nude, mouse, in vivo, iv, i.v. once in three days, BxPC-3 bearing mice, read-out: MTD (maximum tolerated dose)): 120 mg/kg

Cc1cccc(NC(=O)N[C@@H]2N=C(c3ccccc3)c3ccccc3N(C)C2=O)c1 [L-365260]
inhibition of cancer cell proliferation [12]: not found

CN(C)c1cccc(NC(=O)NC2N=C(c3ccccn3)c3ccccc3N(CC(=O)C(C)(C)C)C2=O)c1 (racemic) [comparative compound, (3RS)-N-(1-(1-tert-butylcarbonylmethyl)-2,3-dihydro-2-oxo-5-(2-pyridyl)-1H-1,4-benzodiazepin-3-yl)-N′-(3-(dimethylamino)phenyl)urea, reference compound]
tumor growth inhibitory action ([8]; 200 mg/kg): did not show
